{"source": "patent US7645756B2", "about": "“Nitrogenous fused heteroaromatic ring derivative” (Banyu Pharmaceutical Co. Ltd., priority 2004, dated 2010)", "molecular_target": "T1, human histamine-3 receptor (Homo sapiens, UniProt Q9Y5N1)", "T1 construct": "expressed in transfected cells; host or cells: HEK293 and CHO-K1 (membrane preparation)", "T1 sequence (Q9Y5N1 whole entry)": "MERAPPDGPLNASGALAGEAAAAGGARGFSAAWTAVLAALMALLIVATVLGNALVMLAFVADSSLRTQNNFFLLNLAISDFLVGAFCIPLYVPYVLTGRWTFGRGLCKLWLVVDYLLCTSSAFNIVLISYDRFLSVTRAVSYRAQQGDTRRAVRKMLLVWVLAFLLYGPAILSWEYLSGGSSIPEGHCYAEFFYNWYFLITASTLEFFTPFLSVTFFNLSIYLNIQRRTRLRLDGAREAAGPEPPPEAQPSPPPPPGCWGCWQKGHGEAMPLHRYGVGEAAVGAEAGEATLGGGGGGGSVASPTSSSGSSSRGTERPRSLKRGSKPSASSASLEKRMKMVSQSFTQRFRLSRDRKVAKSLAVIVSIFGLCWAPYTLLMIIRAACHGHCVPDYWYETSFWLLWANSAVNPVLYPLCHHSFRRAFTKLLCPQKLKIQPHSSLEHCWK", "test": "Histamine analogue-binding inhibition test ([35S]GTPγS binding, SPA)", "type": "biochemical", "settings": "for IC50: 50% inhibitory concentration to the specific [35S]GTPγS binding, membrane specimen of histamine-3 receptor expressing cells (HEK293, CHO-K1), 20 nM R-methylhistamine, 25° C., 3 hours; for inhibition of the binding of N-alpha-methylhistamine (histamine analogue) to histamine-H3 receptor: summary in words of the table's results", "from_the_text": "A cDNA sequence coding for a human histamine-3 receptor [see International Laid-Open WO00/39164) was cloned with expression vectors pCR2.1, pEF1x (by Invitrogen) and pCI-neo (by Promega). The resulting expression vector was transfected into host cells, HEK293 and CHO-K1 (American Type Culture Collection), according to a cationic lipid process [see Proceedings of the National Academy of Sciences of the United States of America, Vol., 84, p. 7413 (1987)] to obtain histamine-3 receptor expression cells.\nA membrane specimen prepared from the cells having expressed a histamine-3 receptor was incubated in an assay buffer (50 mM Tris buffer, 100 mM NaCl, 5 mM MgCl2, pH 7.4) along with a test compound, 20 nM R-methylhistamine (histamine analogue, by Sigma), 10?M GDP (guanine nucleotide diphosphate, by Sigma), 200 pM [^35S]GTPγS (guanine nucleotide triphosphate analogue, by Amersham) and SPA resin (W heat germ agglutinin SPA beads, by Amersham) therein, on a 96-well optiplate (by Packard) at 25° C. for 3 hours, then centrifuged at 3,000 rpm, and the activity was determined with Topcount (by Packard). The non-specific binding was determined in the presence of 10 μM GTPγS (by Sigma), and the 50% inhibitory concentration (IC50) of the test compound to the specific [^35S]GTPγS binding was calculated [see British Journal of Pharmacology, Vol. 135, p. 383 (2002)]."}
{"compound": "2-[4-(3-piperidin-1-ylpropoxy)-phenyl]-3aH-pyrazolo[1,5-d][1,2,4]triazine [Example 1]", "values": [{"measurement": "IC50", "value": 6.8, "unit": "nM"}, {"measurement": "inhibition of the binding of N-alpha-methylhistamine (histamine analogue) to histamine-H3 receptor", "value": "strongly inhibited"}]}
{"compound": "Cc1nn2cnnc2cc1-c1ccc(OCCCN2CCCCC2)cc1", "note": "[Example 19, 6-Methyl-7-[4-(3-Piperidin-1-ylpropoxy)-phenyl]-[1,2,4]triazolo[4,3-b]pyridazine]", "values": [{"measurement": "IC50", "value": 1.4, "unit": "nM"}, {"measurement": "inhibition of the binding of N-alpha-methylhistamine (histamine analogue) to histamine-H3 receptor", "value": "strongly inhibited"}]}
{"compound": "Cc1nnc2c3cccnc3c(-c3ccc(OCCCN4CCCCC4)cc3)nn12", "note": "[Example 30, 3-Methyl-6-[4-(3-piperidin-1-ylpropoxy)-phenyl]-pyrido[3,2-d][1,2,4]triazolo[4,3-b]pyridazine]", "values": [{"measurement": "IC50", "value": 0.1, "unit": "nM"}, {"measurement": "inhibition of the binding of N-alpha-methylhistamine (histamine analogue) to histamine-H3 receptor", "value": "strongly inhibited"}]}
{"compound": "c1cc2c(-c3ccc(OCCCN4CCCCC4)cc3)nn3cnnc3c2cn1", "note": "[Example 69]", "values": [{"measurement": "IC50", "value": 0.23, "unit": "nM"}, {"measurement": "inhibition of the binding of N-alpha-methylhistamine (histamine analogue) to histamine-H3 receptor", "value": "strongly inhibited"}]}
{"compound": "c1cc(-c2ccc3nncn3n2)ccc1OCCCN1CCCCC1", "note": "[Example 10, 6-[4-(3-piperidin-1-ylpropoxy)phenyl]-[1,2,4]triazolo[4,3-b]pyridazine]", "values": [{"measurement": "IC50", "value": 1.8, "unit": "nM"}, {"measurement": "inhibition of the binding of N-alpha-methylhistamine (histamine analogue) to histamine-H3 receptor", "value": "strongly inhibited"}]}
{"compound": "3-Phenyl-6-[6-(3-piperidin-1-ylpropyl)-pyridin-3-ylmethoxy]-[1,2,4]triazolo[3,4-a]phthalazine [Example 24]", "values": [{"measurement": "IC50", "value": 10, "unit": "nM"}, {"measurement": "inhibition of the binding of N-alpha-methylhistamine (histamine analogue) to histamine-H3 receptor", "value": "strongly inhibited"}]}
